Test [1] concerns the target B-Raf kinase (SEQ. ID NO: 2) (Homo sapiens (Human), UniProt P15056). Nature of the test: Biochemical Assay for B-Raf (1). Particulars: Table J, biochemical assay (1); read-out: BRAF (1). Summed up: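 IC50 derived by four-parameter sigmoidal fit of percent inhibition, normalised to uninhibited and reference-inhibitor controls, using reaction rates over 4–5 h. Coupled spectrophotometric readout (NADH loss at 340 nm, 6 h, 30° C.); 1 mM ATP, 30.1 nM MEK, 0.13 nM B-Raf, pH 7.5 Tris buffer, 1% DMSO.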

Another test relates to A375 cells. Nature of the test: A375 Cell Proliferation Assay (1). In kind it is cell-based. To be noted: Homo sapiens, A-375. Put shortly: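 Resazurin fluorescence (excitation 540 nm, emission 600 nm, after a further 5-6 h) gave IC50s from triplicate compound dilution series.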
The test system of the next test is H2405 cells. Nature of the test: H2405 Cell Proliferation Assay (1). In kind it is cell-based. To be noted: Homo sapiens, NCI-H2405. Put shortly:
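Viability was read by resazurin reduction (ex 540 nm, em 600 nm; 5-6 h with 40 μL of 440 μM stock) after 67-72 h compound exposure at 37 °C.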

A further test relates to Miapaca-2 cells. Nature of the test: MiaPaca-2 Cell Proliferation Assay (1). To be noted: Homo sapiens, MIA PaCa-2, single agent, read-out: MiaPaca2 (1) IC50. In kind it is cell-based. Put shortly: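 Resazurin was added after compound exposure and incubated 5-6 h, then fluorescence read at 540 nm excitation and 600 nm emission to give IC50.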

Chain of B-Raf kinase (SEQ. ID NO: 2) (P15056 416-766): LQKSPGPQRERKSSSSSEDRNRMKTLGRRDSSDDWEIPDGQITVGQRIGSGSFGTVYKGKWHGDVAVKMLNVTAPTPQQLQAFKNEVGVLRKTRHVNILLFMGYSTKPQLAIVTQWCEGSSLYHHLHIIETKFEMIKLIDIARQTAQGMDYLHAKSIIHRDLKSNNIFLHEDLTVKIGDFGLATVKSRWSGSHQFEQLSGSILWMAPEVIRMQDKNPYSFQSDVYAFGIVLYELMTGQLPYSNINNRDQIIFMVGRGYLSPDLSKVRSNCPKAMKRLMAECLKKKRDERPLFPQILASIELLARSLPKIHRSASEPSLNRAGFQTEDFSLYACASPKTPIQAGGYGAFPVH

With `Cc1ccc(NC(=O)c2ccnc(C(C)(C)F)c2)cc1-c1cncc(-c2cc(NC(=O)C3CC3)ncn2)c1` [Example 394], the IC50 was at most 100 nM in test [1], at most 100 nM with A375 cells, at most 100 nM in the test with H2405 cells and 100 to 500 nM in the test with Miapaca-2 cells.

On to `Cc1ccc(NC(=O)c2ccnc(C3(C#N)CC3)c2)cc1-c1cncc(-c2cc(NC(=O)C3CC3)ncn2)c1` [Example 395], for which the IC50 in test [1] was at most 100 nM; in the test with A375 cells it was at most 100 nM; in the test with H2405 cells it was at most 100 nM; in the test on Miapaca-2 cells, 100 to 500 nM.

`Cc1ccc(NC(=O)c2ccnc(C3CC3)c2)cc1-c1cncc(-c2cc(NC(=O)C3CC3)ncn2)c1` [Example 396]: the IC50 is at most 100 nM in test [1], at most 100 nM in the test with A375 cells, at most 100 nM in the test with H2405 cells and 1000 to 10000 nM in the test on Miapaca-2 cells.

In the case of `Cc1ccc(NC(=O)c2ccnc(C(F)(F)F)c2)cc1-c1cncc(-c2cc(NC(=O)C3CC3)ncn2)c1` [Example 397], the IC50 in test [1] was at most 100 nM; in the test with A375 cells it was at most 100 nM; in the test with H2405 cells it was at most 100 nM; with Miapaca-2 cells, 100 to 500 nM.

In the case of `Cc1cc(F)c(NC(=O)c2ccnc(C3CC3)c2)cc1-c1cncc(-c2cc(NC(=O)C3CC3)ncn2)c1` [Example 398], the IC50 is at most 100 nM in test [1], at most 100 nM in the test with A375 cells, at most 100 nM in the test with H2405 cells and 500 to 1000 nM in the test on Miapaca-2 cells.

In the case of `COC(=O)Nc1cc(-c2cc(-c3cc(NC(=O)c4ccnc(C(C)(C)F)c4)ccc3C)cc(OCCO)n2)ccn1` [Example 401], the IC50 was at most 100 nM in test [1], at most 100 nM in the test on A375 cells, 100 to 500 nM in the test with H2405 cells and 1000 to 10000 nM in the test on Miapaca-2 cells.
